Literature values in US20180200208A1, “COMPOSITIONS FOR IMPROVING OR MAINTAINING MYOCARDIAL FUNCTION” (RepoCeuticals ApS, priority 2015, published 2018).
Values belong to the compound of their own block, whether it stands above or below them.

Tests used:
[1] = biological target: recombinant MT1 receptor (Homo sapiens, UniProt P48039); conditions: relative to melatonin
[2] = biological target: T1, recombinant MT2 receptor (Homo sapiens, UniProt P49286); conditions: relative to melatonin
T1 sequence (P49286 1-362): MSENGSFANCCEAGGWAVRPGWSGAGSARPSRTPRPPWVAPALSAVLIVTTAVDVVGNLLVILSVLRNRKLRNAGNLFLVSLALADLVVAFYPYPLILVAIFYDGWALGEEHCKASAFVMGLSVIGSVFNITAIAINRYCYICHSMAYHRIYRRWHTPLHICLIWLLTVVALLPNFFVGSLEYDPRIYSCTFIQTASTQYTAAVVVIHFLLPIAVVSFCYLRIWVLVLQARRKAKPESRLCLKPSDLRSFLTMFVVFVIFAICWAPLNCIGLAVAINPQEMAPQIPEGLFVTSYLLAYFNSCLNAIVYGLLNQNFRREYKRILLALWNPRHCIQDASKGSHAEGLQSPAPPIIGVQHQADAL

[3] = at 2-8° C.
[4] = test system: patients with primary sleep disorders; conditions: oral doses of up to 5 mg

Chain of recombinant MT1 receptor (P48039 whole entry): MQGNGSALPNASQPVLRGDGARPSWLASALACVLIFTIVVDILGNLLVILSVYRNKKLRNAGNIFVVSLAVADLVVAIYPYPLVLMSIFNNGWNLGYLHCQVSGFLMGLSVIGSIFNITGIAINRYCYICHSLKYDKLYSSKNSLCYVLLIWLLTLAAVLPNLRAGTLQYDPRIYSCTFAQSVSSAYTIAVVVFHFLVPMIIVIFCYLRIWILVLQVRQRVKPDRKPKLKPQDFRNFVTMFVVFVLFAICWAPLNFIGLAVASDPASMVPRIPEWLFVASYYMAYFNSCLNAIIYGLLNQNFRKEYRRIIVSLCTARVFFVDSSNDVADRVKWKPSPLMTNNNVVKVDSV

affinity for recombinant MT1 receptor as % of that of melatonin [1]: 20%
affinity for recombinant MT2 receptor as % of that of melatonin [2]: 13%
SMILES: COc1cc2c(CCNC(C)=O)c[nH]c2cc1O [6-OHM, 6-hydroxymelatonin]

solubility in DMSO: soluble in DMSO
solubility in water: insoluble in water
long-term stability [3]: good long-term stability
SMILES: COc1ccc(NC=O)c(C(=O)CCNC(C)=O)c1 [AFMK, N^1-acetyl-N^2-formyl-5-methoxykynuramine]

solubility in ethanol, dimethyl sulfoxide and various oils: can be dissolved
solubility in water: almost water-insoluble
SMILES: COC1=C(OC)C(=O)C(C/C=C(\C)CC/C=C(\C)CC/C=C(\C)CC/C=C(\C)CC/C=C(\C)CC/C=C(\C)CC/C=C(\C)CC/C=C(\C)CC/C=C(\C)CCC=C(C)C)=C(C)C1=O [Coenzyme Q10]

solubility in DMSO: soluble in DMSO
solubility in water: insoluble in water
SMILES: COc1ccc2[nH]cc(CCNC(C)=O)c2c1 [Melatonin, N-acetyl-5-methoxytryptamine]
increase of sleep duration (average) [4]: 7 to 8 min
reduction of sleep latency (average) [4]: 7 to 8 min

SMILES: CC(=O)NCCc1c[nH]c2ccc(O)cc12 [N-acetylserotonin]
affinity for recombinant MT1 receptor as % of that of melatonin [1]: 0.14%
affinity for recombinant MT2 receptor as % of that of melatonin [2]: 0.22%

solubility in ethanol, dimethyl sulfoxide and various oils: readily soluble
solubility in water: almost insoluble in water
SMILES: O=C1C[C@@H](c2ccc(O)cc2)Oc2cc(O)cc(O)c21 [Naringenin, naringenin]

solubility in ethanol, dimethyl sulfoxide and various oils: readily soluble
solubility in water: almost insoluble in water
SMILES: Oc1ccc(C=Cc2cc(O)cc(O)c2)cc1 [Resveratrol, resveratrol]
